The values below come from patent publication US20140243239A1, “MULTIPLEXED KINASE INHIBITOR BEADS AND USES THEREOF” (University of North Carolina at Chapel Hill, priority 2011, published 2014).

The structures appear in SMILES notation.

Assay [1] has as its system RTKs. Nature of the assay: RTK expression in C3Tag tumors (western blot). The class given is in vivo, mouse. On the procedure: (§1) Treatment began the same day. Tumor size was assessed twice weekly by caliper measurements of tumor areas ((width)2×length))/2 for 21 days. […] Drugs were incorporated into the diet of mice to achieve a daily dose of AZD6244 20 mg/kg and sorafenib 30 mg/kg. […] Tumors at harvest were cut in half and either snap-frozen in liquid nitrogen and stored at −80° C. or placed in neutral buffered 10% formalin solution.
(§2) Western blotting: Proteins from cell lysates were separated by SDS-PAGE chromatography, transferred to nitrocellulose membranes, and probed with the indicated primary antibodies. Antibodies recognizing pAKT (S473), pAKT (T308), AURA, pAXL (Y702), AXL, c-Myc, DDR1, EGFR, pERK1/2 (T202/Y204), pHER3 (Y1197), MAX, pMEK1/2 (S217/S221), MEK1/2, MKP3, pP70S6K (T389), pPDGFRβ (Y751), pPDGFRβ (Y1009), pPDGFR (Y857), PDGFRβ, pRAF (S338), pRSK1 (T359/S363), pVEGFR2 (Y1175), VEGFR2 were obtained from Cell Signaling Technology. Antibodies for Cyclin A2, Cyclin B1, Cyclin D1, ERK2, RAF, and pRAF (S259) were obtained from Santa Cruz Biotechnology. The antibody recognizing Bim was obtained from Chemicon. The antibody recognizing p-c-Myc (S62) was obtained from Abeam. Secondary HRP-anti-rabbit and HRP-anti-goat secondary antibodies were from Jackson Immunoresearch Laboratories and Santa Cruz Biotechnology, respectively. Western blots were visualized by incubation with SuperSignal West Pico Chemiluminescent Substrate (Thermo Scientific).
(In general: A western blot detects proteins with antibodies after separation by electrophoresis.)

In assay [2] the test system is SUM159 cells. As to the kind of experiment: SUM159 cell growth (Cell-Titer Glo, cell counts). The format is cell-based, human. Conditions: 5 μM MEK inhibitor (FIG. 2A). As for the experimental part:
Cell Culture: MDA-MB-231 cells were grown in DMEM/F12 supplemented with 10% FBS. SUM-159 cells were grown in DMEM/F12 supplemented with 10% FBS 1 μg/mL hydrocortisone, and 5 μg/mL insulin. SUM159-R cells were continually grown in the presence of 5 μM AZD6244. For SILAC labeling, cells were grown for five doublings in arginine- and lysine-depleted media (as above) supplemented with either unlabeled L-arginine (42 mg/L) and L-lysine (71 mg/L) or equimolar amounts of heavy isotope labeled [13C6,15N4]arginine (Arg10) and [13C6]lysine (Lys6) (Cambridge Isotope Laboratories). Proliferation was quantified using Cell-Titer Glo Luminescent Cell Viability Assay (Promega). Fresh media containing DMSO or kinase inhibitors was added daily and experiments were performed in triplicate.

Assay [3] concerns ERK. Nature of the assay: MEK/ERK activation in C3Tag tumors (western blot). The class given is in vivo, mouse. To be noted: AZD6244 20 mg/kg 28 days; sorafenib 30 mg/kg 26 days. As for the experimental part:
as §1
as §2, with “Western blots were visualized by incubation with SuperSignal West Pico Chemiluminescent Substrate (Thermo Scientific).” left out

On to `Cn1cnc2c(F)c(Nc3ccc(Br)cc3Cl)c(C(=O)NOCCO)cc21` [AZD6244], for which the “expression of RTKs in C3Tag tumors versus untreated” value in assay [1] (AZD6244 20 mg/kg 28 days, sorafenib 30 mg/kg 26 days) is “elevated”. Besides, the “PDGFRβ expression in C3Tag tumors” value in assay [1] (AZD6244 20 mg/kg, 2 and 7 days) is “strongly induced”. The “growth of SUM159 cells” value in assay [2] is reported as “inhibited growth”. Further, in assay [3], the “tumor MEK and ERK compared to untreated animals” value was “strongly activated”.
